According to US20250213451A1, “AN ORAL CARE COMPOSITION COMPRISING A GLYCOLIPID AND A MILD SURFACTANT” (priority 2021, published 2025):

System: oral tissue cells based on EpiOral Tissue Model
Assay: Oral irritation evaluation, EpiOral Tissue Model
Assay type: cell-based
Description: The oral irritation evaluation was conducted to test the surfactant mildness and oral irritation. The test sample solution was prepared in aqueous solution with 1% active content at pH of 7. The test sample solutions were applied to the oral tissue cells based on EpiOral Tissue Model provided by Mattek Corp. The viability of the cells over time was measured and used to calculate the time of exposure until viability is reduced to 50%, which is indicated by ET-50.

Row | Molecule | Oral Irritation Classification (aqueous solution with 1% active content at pH of 7, class from ET-50) | ET-50 based on EpiOral Model (aqueous solution with 1% active content at pH of 7, time of exposure until viability is reduced to 50%) [min] | ET-50 based on EpiOral Model (pH 7) [min] | Oral Irritation Classification (pH 7)
1 | CCCCCCCCCCCCOS(=O)(=O)[O-].[Na+] [Texapon ® OC-N, Sodium Lauryl Sulfate] | Moderately irritation | 116.7 |  | 
2 | Cocamidopropyl Betaine [Dehyton ® PK 45] |  |  | 181.0 | Mildly irritation
3 | PEG-12 [Pluracare ® E-600] |  |  |  | None to minimal irritation
